Values of other authors, collected in patent publication US20050042268A1, “Pharmaceutical composition and method for transdermal drug delivery” (priority 2003, published 2005).

Q: Which results are given for C[C@]12CC[C@H]3[C@@H](CCC4=CC(=O)CC[C@@]43C)[C@@H]1CC[C@@H]2O [testosterone]?
A: free testosterone as part of the total concentration in the blood: 4 to 8%; testosterone in the blood bound to protein: Over 90%
